ChEMBL document CHEMBL1201862, “PubChem BioAssay data set” (2004)
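Growth conditions: 96-well plates. Treatment: test compound, 48 hours, 5 concentrations. Analysis: linear interpolation between bracketing concentrations; unreached endpoints set to highest concentration. GI50: concentration for 50% inhibition of growth.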 Active and inactive are the calls of the source. Cut-off read from the data, not from the text of the source: active = GI50 up to about 1.1 µM and inactive = higher.

Columns and labels:
Assay in all cases: DTP human tumour cell line panel, 48 h
786-0 = system: 786-0
A498 = system: A498
A549 = system: A549
ACHN = system: ACHN
BT-549 = system: BT-549
CAKI-1 = system: CAKI-1
CCRF-CEM = system: CCRF-CEM
COLO 205 = system: COLO 205
DU-145 = system: DU-145
EKVX = system: EKVX
HCC 2998 = system: HCC 2998
HCT-116 = system: HCT-116
HCT-15 = system: HCT-15
HL-60 = system: HL-60
HOP-62 = system: HOP-62
HOP-92 = system: HOP-92
HT-29 = system: HT-29
Hs-578T = system: Hs-578T
IGROV-1 = system: IGROV-1
K562 = system: K562
KM12 = system: KM12
LOX IMVI = system: LOX IMVI
M14 = system: M14
MCF7 = system: MCF7
MDA-MB-231 = system: MDA-MB-231
MDA-MB-435 = system: MDA-MB-435
MDA-N = system: MDA-N
MOLT-4 = system: MOLT-4
Malme-3M = system: Malme-3M
NCI-H226 = system: NCI-H226
NCI-H23 = system: NCI-H23
NCI-H460 = system: NCI-H460
NCI-H522 = system: NCI-H522
NCI/ADR-RES = system: NCI/ADR-RES
OVCAR-3 = system: OVCAR-3
OVCAR-4 = system: OVCAR-4
OVCAR-5 = system: OVCAR-5
OVCAR-8 = system: OVCAR-8
PC-3 = system: PC-3
RPMI-8226 = system: RPMI-8226
RXF 393 = system: RXF 393
SF-268 = system: SF-268
SF-295 = system: SF-295
SF-539 = system: SF-539
SK-MEL-28 = system: SK-MEL-28
SK-MEL-2 = system: SK-MEL-2
SK-MEL-5 = system: SK-MEL-5
SK-OV-3 = system: SK-OV-3
SN12C = system: SN12C
SNB-19 = system: SNB-19
SNB-75 = system: SNB-75
SR = system: SR
SW-620 = system: SW-620
T47D = system: T47D
TK-10 = system: TK-10
U-251 = system: U-251
UACC-257 = system: UACC-257
UACC-62 = system: UACC-62
UO-31 = system: UO-31

With `CCOC(=O)CSc1nc(N)c2c(-c3ccccc3)c3c(nc2n1)CCCC3` the GI50 (786-0) was > 100 µM (inactive), the GI50 (A498) was > 100 µM (inactive) and the GI50 (A549) was > 100 µM (inactive). The GI50 (ACHN) was > 100 µM (inactive), the GI50 (BT-549) was > 100 µM (inactive) and the GI50 (CAKI-1) was > 100 µM (inactive). The GI50 (CCRF-CEM) was > 100 µM (inactive), the GI50 (COLO 205) was > 100 µM (inactive) and the GI50 (DU-145) was > 100 µM (inactive). The GI50 (EKVX) was > 100 µM (inactive), the GI50 (HCC 2998) was > 100 µM (inactive) and the GI50 (HCT-116) was > 100 µM (inactive). The GI50 (HCT-15) was > 100 µM, the GI50 (HL-60) was > 100 µM (inactive) and the GI50 (HOP-62) was > 100 µM (inactive). The GI50 (HOP-92) was > 100 µM (inactive), the GI50 (HT-29) was > 100 µM (inactive) and the GI50 (Hs-578T) was 65.8 µM (inactive). For the same molecule, the GI50 (IGROV-1) was > 100 µM (inactive), the GI50 (K562) was > 100 µM (inactive) and the GI50 (KM12) was > 100 µM (inactive). For the same molecule, the GI50 (LOX IMVI) was > 100 µM (inactive), the GI50 (M14) was > 100 µM (inactive) and the GI50 (MCF7) was > 100 µM (inactive). The GI50 (MDA-MB-231) was > 100 µM (inactive), the GI50 (MDA-MB-435) was > 100 µM (inactive) and the GI50 (MDA-N) was > 100 µM (inactive). The GI50 (MOLT-4) was > 100 µM (inactive), the GI50 (Malme-3M) was > 100 µM (inactive) and the GI50 (NCI-H226) was > 100 µM (inactive). The GI50 (NCI-H23) was > 100 µM (inactive), the GI50 (NCI-H460) was > 100 µM (inactive) and the GI50 (NCI-H522) was > 100 µM (inactive). For the same molecule, the GI50 (NCI/ADR-RES) was > 100 µM (inactive), the GI50 (OVCAR-3) was > 100 µM (inactive) and the GI50 (OVCAR-4) was > 100 µM (inactive). For the same molecule, the GI50 (OVCAR-5) was > 100 µM (inactive), the GI50 (OVCAR-8) was > 100 µM (inactive) and the GI50 (PC-3) was > 100 µM (inactive). For the same molecule, the GI50 (RPMI-8226) was > 100 µM (inactive), the GI50 (RXF 393) was > 100 µM (inactive) and the GI50 (SF-268) was > 100 µM (inactive). For the same molecule, the GI50 (SF-295) was > 100 µM (inactive), the GI50 (SF-539) was > 100 µM (inactive) and the GI50 (SK-MEL-28) was > 100 µM (inactive). For the same molecule, the GI50 (SK-MEL-2) was > 100 µM (inactive), the GI50 (SK-MEL-5) was > 100 µM (inactive) and the GI50 (SK-OV-3) was > 100 µM (inactive). For the same molecule, the GI50 (SN12C) was > 100 µM (inactive), the GI50 (SNB-19) was > 100 µM (inactive) and the GI50 (SNB-75) was 98.6 µM (inactive). For the same molecule, the GI50 (SR) was > 100 µM (inactive), the GI50 (SW-620) was > 100 µM (inactive) and the GI50 (T47D) was > 100 µM (inactive). For the same molecule, the GI50 (TK-10) was > 100 µM (inactive), the GI50 (U-251) was > 100 µM (inactive) and the GI50 (UACC-257) was > 100 µM (inactive). The GI50 (UACC-62) was > 100 µM (inactive) and the GI50 (UO-31) was 25.1 µM (inactive).

`COc1cc2c(cc1OC)C(=O)/C(=C/c1ccccc1)C2` was tested, and the GI50 (786-0) was 90.6 µM (inactive), the GI50 (A498) was 4.54 µM (inactive) and the GI50 (A549) was > 100 µM (inactive). The GI50 (ACHN) was > 100 µM (inactive), the GI50 (BT-549) was > 100 µM (inactive) and the GI50 (CAKI-1) was > 100 µM (inactive). The GI50 (CCRF-CEM) was 27.5 µM (inactive), the GI50 (COLO 205) was > 100 µM (inactive) and the GI50 (DU-145) was > 94.2 µM (inactive). The GI50 (EKVX) was > 100 µM (inactive), the GI50 (HCC 2998) was 78.3 µM (inactive) and the GI50 (HCT-116) was 48 µM (inactive). The GI50 (HCT-15) was > 82 µM, the GI50 (HL-60) was 16.9 µM (inactive) and the GI50 (HOP-62) was 52.5 µM (inactive). The GI50 (HOP-92) was > 70 µM (inactive), the GI50 (HT-29) was 45.3 µM (inactive) and the GI50 (Hs-578T) was > 100 µM (inactive). The GI50 (IGROV-1) was > 67 µM (inactive), the GI50 (K562) was 11.9 µM (inactive) and the GI50 (KM12) was 60.8 µM (inactive). For the same molecule, the GI50 (LOX IMVI) was 86.5 µM (inactive), the GI50 (M14) was > 62.5 µM (inactive) and the GI50 (MCF7) was > 71.3 µM (inactive). The GI50 (MDA-MB-231) was > 100 µM (inactive), the GI50 (MDA-MB-435) was > 87.7 µM (inactive) and the GI50 (MDA-N) was > 93.8 µM (inactive). The GI50 (MOLT-4) was 16.3 µM (inactive), the GI50 (Malme-3M) was > 83 µM (inactive) and the GI50 (NCI-H226) was > 81.8 µM (inactive). The GI50 (NCI-H23) was > 74.8 µM (inactive), the GI50 (NCI-H460) was 53.7 µM (inactive) and the GI50 (NCI-H522) was 47 µM (inactive). The GI50 (NCI/ADR-RES) was > 66.2 µM (inactive), the GI50 (OVCAR-3) was > 100 µM (inactive) and the GI50 (OVCAR-4) was > 85.5 µM (inactive). The GI50 (OVCAR-5) was > 100 µM (inactive), the GI50 (OVCAR-8) was > 100 µM (inactive) and the GI50 (PC-3) was > 58.9 µM (inactive). The GI50 (RPMI-8226) was 19.1 µM (inactive), the GI50 (RXF 393) was > 34.8 µM (inactive) and the GI50 (SF-268) was 73.3 µM (inactive). For the same molecule, the GI50 (SF-295) was 76.9 µM (inactive), the GI50 (SF-539) was 43.6 µM (inactive) and the GI50 (SK-MEL-28) was > 100 µM (inactive). The GI50 (SK-MEL-2) was > 100 µM (inactive), the GI50 (SK-MEL-5) was 37.2 µM (inactive) and the GI50 (SK-OV-3) was > 100 µM (inactive). The GI50 (SN12C) was > 100 µM (inactive), the GI50 (SNB-19) was > 100 µM (inactive) and the GI50 (SNB-75) was > 39.4 µM (inactive). The GI50 (SR) was 29.4 µM (inactive), the GI50 (SW-620) was 94 µM (inactive) and the GI50 (T47D) was 63.5 µM (inactive). The GI50 (TK-10) was > 100 µM (inactive), the GI50 (U-251) was > 100 µM (inactive) and the GI50 (UACC-257) was > 100 µM (inactive). For the same molecule, the GI50 (UACC-62) was 30.5 µM (inactive) and the GI50 (UO-31) was > 83.8 µM (inactive).

In the case of `COc1ccc(OC)c(C(=O)/C=C/c2cc(O)c(O)cc2F)c1`, the GI50 (786-0) is reported as 2.28 µM (inactive), the GI50 (A498) is reported as 3.17 µM (inactive) and the GI50 (A549) is reported as 9.57 µM (inactive). For the same molecule, the GI50 (ACHN) was 2.27 µM (inactive), the GI50 (BT-549) was 0.843 µM (active) and the GI50 (CAKI-1) was 4.71 µM (inactive). For the same molecule, the GI50 (CCRF-CEM) was 0.41 µM (active), the GI50 (COLO 205) was 15.5 µM (inactive) and the GI50 (DU-145) was 0.817 µM (active). For the same molecule, the GI50 (EKVX) was 8.04 µM (inactive), the GI50 (HCC 2998) was 0.538 µM (active) and the GI50 (HCT-116) was 0.47 µM (active). For the same molecule, the GI50 (HCT-15) was 0.076 µM, the GI50 (HL-60) was 0.0361 µM (active) and the GI50 (HOP-62) was 1.05 µM (active). The GI50 (HOP-92) was 10.1 µM (inactive), the GI50 (HT-29) was 7.14 µM (inactive) and the GI50 (Hs-578T) was 0.424 µM (active). For the same molecule, the GI50 (IGROV-1) was 1.61 µM (inactive), the GI50 (K562) was 0.356 µM (active) and the GI50 (KM12) was 0.474 µM (active). For the same molecule, the GI50 (LOX IMVI) was 0.69 µM (active), the GI50 (M14) was 0.638 µM (active) and the GI50 (MCF7) was 0.29 µM (active). The GI50 (MDA-MB-231) was 1.41 µM (inactive), the GI50 (MDA-MB-435) was 0.219 µM (active) and the GI50 (MDA-N) was 0.181 µM (active). For the same molecule, the GI50 (MOLT-4) was 0.321 µM (active), the GI50 (Malme-3M) was 2.47 µM (inactive) and the GI50 (NCI-H226) was 5.24 µM (inactive). The GI50 (NCI-H23) was 0.535 µM (active), the GI50 (NCI-H460) was 2.14 µM (inactive) and the GI50 (NCI-H522) was 0.272 µM (active). For the same molecule, the GI50 (NCI/ADR-RES) was 0.412 µM (active), the GI50 (OVCAR-3) was 0.18 µM (active) and the GI50 (OVCAR-4) was 2.29 µM (inactive). The GI50 (OVCAR-5) was 13 µM (inactive), the GI50 (OVCAR-8) was 2.14 µM (inactive) and the GI50 (PC-3) was 4.18 µM (inactive). The GI50 (RPMI-8226) was 0.678 µM (active), the GI50 (RXF 393) was 1.37 µM (inactive) and the GI50 (SF-268) was 0.643 µM (active). The GI50 (SF-295) was 1.33 µM (inactive), the GI50 (SF-539) was 0.258 µM (active) and the GI50 (SK-MEL-28) was 1.85 µM (inactive). For the same molecule, the GI50 (SK-MEL-2) was 1.02 µM (active), the GI50 (SK-MEL-5) was 0.558 µM (active) and the GI50 (SK-OV-3) was 3.35 µM (inactive). For the same molecule, the GI50 (SN12C) was 0.417 µM (active), the GI50 (SNB-19) was 0.619 µM (active) and the GI50 (SNB-75) was 0.442 µM (active). The GI50 (SR) was 0.227 µM (active), the GI50 (SW-620) was 0.845 µM (active) and the GI50 (T47D) was 5.85 µM (inactive). The GI50 (TK-10) was 6.58 µM (inactive), the GI50 (U-251) was 0.486 µM (active) and the GI50 (UACC-257) was 3.1 µM (inactive). The GI50 (UACC-62) was 0.701 µM (active) and the GI50 (UO-31) was 2.66 µM (inactive).
